Source: patent US6509377B1, “Use of a 2-hydroxy-4-trifluoromethylbenzoic acid derivatives as inhibitors of the activation of the nuclear transcription factor NF-κB” (J. Uriach & Cia, S.A., priority 1999, dated 2003)

What was measured:
VCAM-1 = test: Expression of VCAM-1 mRNA induced by TNF-α in HUVEC (RT-PCR); format: cell-based, human; settings: 4 mM, TNF-α 100 U/ml, one hour
Description: (§1) Primers used for the detection of VCAM-1 mRNA by RT-PCR were designed from the human gene sequence (EMBUGenBank AC: M30257), using the Wisconsin Package Version 9.1, Genetics Computer Group (GCG), Madison, Wis. Their sequences were 5′-TGTCACTGTMGCTGCMG-3′ and 5′-TTCCAGCCTGGTTAATTC-3′, corresponding to nucleotides 1090-1108 and 1589-1572 (L. Osbom et al., Cell 1989, 59(6), 1203-1211). Total RNA was extracted from cultured cells using the guanidium isothiocyanate method (P. Chomczynski and N. Sacchi, Anal Biochem. 1987, 162(1), 156-159). cDNA first strand was synthesized from total RNA by reverse transcription reaction. […] The relative amounts of each amplified cDNA were determined by measuring the density of the bands stained with ethidium bromide using the Gel Doc documentation system and the Molecular Analyst software from Bio-Rad Laboratories, Hercules, Calif. […]
(§2) Specifically, the effect of Triflusal (4 mM) and HTB (4 mM) on the regulation of the expression of VCAM-1 mRNA induced by TNF-α (100 U/ml) in HUVEC was studied. […] The PCR products were separated by electrophoresis in a 1.8% agarose gel and were later quantified. The molecular weight of the amplification products was determined from the electrophoretic migration of DNA size standards.

β-actin = test: Expression of β-actin mRNA in HUVEC (RT-PCR, constitutive control gene); format: cell-based, human; settings: 4 mM
Description: as §1, §2

[1] = test system: cocultures of rat neurons and astrocytes; test: Neuronal cell death in cocultures of neurons and astrocytes induced by oxygen-glucose deprivation (OGD); format: cell-based; settings: 4 h OGD, 24-hour recovery; triflusal 10 and 30 μg/ml; HTB 20 and 100 μg/ml
Description: To carry out this study, an in vitro model of neuronal ischemia based on cocultures of neurons and glial cells was used. Primary cultures of type 1 astrocytes were prepared from 1-day old Wistar rats. Astrocytes were plated onto 60 mm, poly-D-lysine-coated plates. These cells were allowed to grow until they were confluent (about 11 days) and then rat primary neurons were plated onto them and were allowed to grow for 10 days. In addition, separate cultures of each one of the two types of cells were prepared.
Half of the cultures were exposed for four hours to oxygenlucose deprivation (OGD), followed by a 24-hour recovery period. Both the cells exposed to OGD and control cells, were treated at the start of OGD with 0, 10 and 30 μg/ml triflusal in a series of experiments and with 0, 20 and 100 μg/ml HTB in another series. After the 24-hour recovery period, the release of lactate dehydrogenase (LDH) into the medium was determined as a measure of cellular death, as well as the degree of apoptosis in the cultures (using the TUNEL assay) and total neuron and astrocyte counts present in the coculture (using Hoescht staining).

iNOS = iNOS expression measured as nitrite production induced by immune complexes in rat peritoneal macrophages; format: cell-based; settings: Peritoneal macrophage, 100 μg/ml IgG/ovalbumin, nitrite after 24 hours, mean ± SEM, read-out: IC50, production of nitrite (NO) induced by immune complexes
Description: Rat peritoneal cells were obtained and resuspended in DMEM culture medium in the absence of serum and supplemented with antibiotics. Macrophages were isolated by their ability to adhere to culture plates following incubation for 2 hours at 37° C. Non-adherent cells were removed and it was then checked that more than 95% of the adherent cells were macrophages, as assessed by their ability to engulf zymosan particles and nonspecific esterase staining. Culture plates were kept at 37° C. under a 5% CO2 atmosphere, and the peritoneal macrophages adhered to the plates were incubated with 100 μg/ml IgG/ovalbumin immune complexes in the presence or absence (Control) of triflusal or HTB (0.1-20 mM, both). Drugs were added 10 minutes before the addition of IgG/ovalbumin and the production of NO was determined as the nitrite present after 24 hours.
iNOS expression was indirectly measured as the production of NO. NO released from macrophage cultures was determined indirectly by the accumulation of nitrites. […] 50 μl naphthylenediamine (1 mM final concentration) were added and after 15 minutes of incubation the absorbance of the sample was measured at 548 nm and was compared with a NaNO2 standard. The production of NO was expressed as nmol NO2^−/mg protein.

Row | Structure (SMILES) | inhibition of the expression of VCAM-1 mRNA induced by TNF-α (VCAM-1) | effect on the expression of β-actin mRNA (β-actin) | increase in LDH release induced by OGD [1] | increase in number of apoptotic neurons induced by OGD (TUNEL) [1] | IC50 (iNOS) [µM]
1 | O=C(O)c1ccc(C(F)(F)F)cc1O [HTB, 2-hydroxy-4-trifluoromethylbenzoic acid] | completely inhibit | absence of effect | completely inhibited | completely inhibited | 1840 ± 340
2 | CC(=O)Oc1cc(C(F)(F)F)ccc1C(=O)O [triflusal, 2-Acetyloxy-4-trifluoromethylbenzoic acid, reference compound] | completely inhibit | absence of effect | completely inhibited | completely inhibited | 1130 ± 120
